Test results: ChEMBL document CHEMBL4673230, “Total Synthesis of Natural Lembehyne C and Investigation of Its Cytotoxic Properties” (J Nat Prod, 2020)

Assays:
Jurkat [1] = assay: Induction of apoptosis in human Jurkat cells assessed as viable cells at 50 nM after 24 hrs by Annexin V/7-AAD staining.based flow cytometric analysis relative to control; format: functional; settings: read-out: Activity
[2] = Effect on total p70S6K level in human jurkat cells at 400 nM by magnetic bead based immunoassay; format: cell-based; settings: 0.4 µM
Jurkat [3] = assay: Induction of cell cycle arrest in human Jurkat cells assessed as accumulation at super-G2 phase at 100 nM after 24 hrs by Guava Cell Cycle reagent based flow cytometric analysis relative to control; format: functional
Jurkat [4] = assay: Induction of apoptosis in human Jurkat cells assessed as early apoptotic cells at 400 nM after 24 hrs by Annexin V/7-AAD staining.based flow cytometric analysis relative to control; format: functional
Jurkat [5] = assay: Induction of apoptosis in human Jurkat cells assessed as early apoptotic cells at 100 nM after 24 hrs by Annexin V/7-AAD staining.based flow cytometric analysis relative to control; format: functional
Jurkat [6] = assay: Induction of apoptosis in human Jurkat cells assessed as late apoptotic cells at 400 nM after 24 hrs by Annexin V/7-AAD staining.based flow cytometric analysis relative to control; format: functional
Jurkat [7] = assay: Induction of cell cycle arrest in human Jurkat cells assessed as accumulation at super-G2 phase at 200 nM after 24 hrs by Guava Cell Cycle reagent based flow cytometric analysis relative to control; format: functional
Jurkat [8] = assay: Induction of cell cycle arrest in human Jurkat cells assessed as accumulation at G2 phase at 50 nM after 24 hrs by Guava Cell Cycle reagent based flow cytometric analysis relative to control; format: functional
Jurkat [9] = assay: Induction of mitochondrial membrane potential loss in human Jurkat cells assessed as early apoptotic cells at 400 nM after 4 hrs by MitoSense Red/7-AAD. flow cytometric analysis relative to control; format: functional
Jurkat [10] = assay: Induction of cell cycle arrest in human Jurkat cells assessed as accumulation at S phase at 200 nM after 24 hrs by Guava Cell Cycle reagent based flow cytometric analysis relative to control; format: functional
Jurkat [11] = assay: Induction of cell cycle arrest in human Jurkat cells assessed as accumulation at sub-G1 phase at 100 nM after 24 hrs by Guava Cell Cycle reagent based flow cytometric analysis relative to control; format: functional
Jurkat [12] = assay: Induction of ROS generation in human Jurkat cells assessed as mitochondria damaged cells at 200 nM after 4 hrs by MitoSox Red/annexin V-CF488A staining based flow cytometric analysis (reference value: 0%); format: functional
Jurkat [13] = assay: Induction of cell cycle arrest in human Jurkat cells assessed as accumulation at G2/G1 phase at 50 nM after 24 hrs by Guava Cell Cycle reagent based flow cytometric analysis relative to control; format: functional
Jurkat [14] = assay: Induction of cell cycle arrest in human Jurkat cells assessed as accumulation at G2/G1 phase at 100 nM after 24 hrs by Guava Cell Cycle reagent based flow cytometric analysis relative to control; format: functional
Jurkat [15] = assay: Induction of cell cycle arrest in human Jurkat cells assessed as accumulation at S phase at 100 nM after 24 hrs by Guava Cell Cycle reagent based flow cytometric analysis relative to control; format: functional
Jurkat [16] = assay: Induction of ROS generation in human Jurkat cells assessed as living undamaged cells at 200 nM after 24 hrs by MitoSox Red/annexin V-CF488A staining based flow cytometric analysis (reference value: 95.44%); format: functional
Jurkat [17] = assay: Induction of mitochondrial membrane potential loss in human Jurkat cells after 4 hrs by flow cytometric analysis; format: functional, cell-based
[18] = Effect on total CREB level in human jurkat cells at 400 nM by magnetic bead based immunoassay; format: cell-based; settings: 0.4 µM
Jurkat [19] = assay: Induction of cell cycle arrest in human Jurkat cells assessed as accumulation at super-G2 phase at 400 nM after 24 hrs by Guava Cell Cycle reagent based flow cytometric analysis relative to control; format: functional
Jurkat [20] = assay: Induction of apoptosis in human Jurkat cells assessed as necrotic cells at 400 nM after 24 hrs by Annexin V/7-AAD staining.based flow cytometric analysis relative to control; format: functional
Jurkat [21] = assay: Induction of apoptosis in human Jurkat cells assessed as viable cells at 100 nM after 24 hrs by Annexin V/7-AAD staining.based flow cytometric analysis relative to control; format: functional; settings: read-out: Activity
Jurkat [22] = assay: Induction of cell cycle arrest in human Jurkat cells assessed as accumulation at G2/G1 phase at 400 nM after 24 hrs by Guava Cell Cycle reagent based flow cytometric analysis relative to control; format: functional
Jurkat [23] = assay: Induction of cell cycle arrest in human Jurkat cells assessed as accumulation at G1 phase at 50 nM after 24 hrs by Guava Cell Cycle reagent based flow cytometric analysis relative to control; format: functional
[24] = Effect on total ERK1/2 level in human jurkat cells at 400 nM by magnetic bead based immunoassay; format: cell-based; settings: 0.4 µM
Jurkat [25] = assay: Induction of apoptosis in human Jurkat cells assessed as viable cells at 200 nM after 24 hrs by Annexin V/7-AAD staining.based flow cytometric analysis relative to control; format: functional; settings: read-out: Activity
Jurkat [26] = assay: Induction of cell cycle arrest in human Jurkat cells assessed as accumulation at G1 phase at 100 nM after 24 hrs by Guava Cell Cycle reagent based flow cytometric analysis relative to control; format: functional
Jurkat [27] = assay: Induction of mitochondrial membrane potential loss in human Jurkat cells assessed as early apoptotic cells at 200 nM after 4 hrs by MitoSense Red/7-AAD. flow cytometric analysis relative to control; format: functional
Jurkat [28] = assay: Induction of mitochondrial membrane potential loss in human Jurkat cells assessed as late apoptotic cells at 200 nM after 4 hrs by MitoSense Red/7-AAD. flow cytometric analysis relative to control; format: functional
Jurkat [29] = assay: Induction of cell cycle arrest in human Jurkat cells assessed as accumulation at G1 phase at 400 nM after 24 hrs by Guava Cell Cycle reagent based flow cytometric analysis relative to control; format: functional
Jurkat [30] = assay: Cytotoxicity against human Jurkat cells assessed as reduction in cell viability by 7-AAD staining based flow cytometric analysis; format: functional
[31] = Effect on total p38 level in human jurkat cells at 400 nM by magnetic bead based immunoassay; format: cell-based; settings: 0.4 µM
U-937 = assay: Cytotoxicity against human U937 cells assessed as reduction in cell viability by 7-AAD staining based flow cytometric analysis; format: functional
[32] = Effect on total STAT5 level in human jurkat cells at 400 nM by magnetic bead based immunoassay; format: cell-based; settings: 0.4 µM

C#C[C@H](O)CCCCCCCCC/C=C\CC/C=C\CC/C=C\CCCCCCCCCCCCCCCC
viability at 0.05 µM (Jurkat [1]): 59.8%
Activity [2]: Toxic
Activity (Jurkat [3]): 1.21%
Activity (Jurkat [4]): 15.86%
Activity (Jurkat [5]): 12.63%
Activity (Jurkat [6]): 50.24%
Activity (Jurkat [7]): 0.91%
Activity (Jurkat [8]): 5.09%
Activity (Jurkat [9]): 3.32%
Activity (Jurkat [10]): 28.57%
Activity (Jurkat [11]): 13.99%
Activity (Jurkat [12]): 0.16%
Activity (Jurkat [13]): 1.91%
Activity (Jurkat [14]): 1.94%
Activity (Jurkat [15]): 30.33%
Activity (Jurkat [16]): 33.64%
Activity (Jurkat [17]): Dose-dependent effect
Activity [18]: Toxic
Activity (Jurkat [19]): 1.85%
Activity (Jurkat [20]): 1.01%
viability at 0.1 µM (Jurkat [21]): 41.7%
Activity (Jurkat [22]): 1.93%
Activity (Jurkat [23]): 44.65%
Activity [24]: Toxic
viability at 0.2 µM (Jurkat [25]): 36.1%
Activity (Jurkat [26]): 34.96%
Activity (Jurkat [27]): 0.9%
Activity (Jurkat [28]): 0.84%
Activity (Jurkat [29]): 30.24%
IC50 (Jurkat [30]): 161 nM
Activity [31]: Toxic
IC50 (U-937): 124 nM
Activity [32]: Toxic
